Among the test systems are SK-OV-3 ovarian; NCI-H522 lung; K-562 leukemia; OVCAR-3 ovarian; HT29 colon; HCT-15 colon; MCF7 breast; DU-145 prostate; MDA-MB-435; T-47D breast.
Assay in all cases: growth of human tumour cells (NCI), 48 h

Structures are written as SMILES.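 In this assay, cells in 96-well plates receive the compound at five concentrations for 48 hours. Endpoints are linearly interpolated between the surrounding concentrations. GI50 = concentration required for 50% inhibition of growth. TGI: concentration producing complete growth inhibition.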 *1 amine or outer side, *2 acyl side, *3 side chain or, on linkers, in order; H or OH if unused. Where a SMILES comes first, the peptide text is derived from it. Bridges are numbered along the chain shown (N, C = ends). Roman numbers before positions name the chains, in order. X23 = CCCCCCCCCCCCCCC(=O)NC(CCCCN[*:2])C(=O)CN1CCCC1C(=O)[*:1]

Turning to `O=C1NC2(NC(=O)C1=O)Nc1ccccc1S2`, the TGI in the experiment on SK-OV-3 ovarian is more than 100 µM; with NCI-H522 lung it was 50 µM; with K-562 leukemia, more than 64.7 µM; in the experiment with OVCAR-3 ovarian it was more than 100 µM; with HT29 colon, more than 100 µM; in the experiment on HCT-15 colon, more than 59.5 µM.
Take `COC[C@@H]1Cc2cc(OC)c3c(c2[C@H](c2ccc(OC)c(OC)c2)[C@H]1COC)OCO3`: the TGI in the experiment on SK-OV-3 ovarian, in the experiment on NCI-H522 lung, with OVCAR-3 ovarian, in the experiment on HT29 colon and with HCT-15 colon was more than 100 µM in each case.
As to `CC(C)(C)C(=O)CC(=O)C(F)(F)C(F)(F)C(F)(F)F.CC(C)(C)C(=O)CC(=O)C(F)(F)C(F)(F)C(F)(F)F.CC(C)(C)C(=O)CC(=O)C(F)(F)C(F)(F)C(F)(F)F.[Er]`, the GI50 was more than 100 µM in the experiment with MCF7 breast and 94 µM with NCI-H522 lung. Besides, the TGI with MCF7 breast, with DU-145 prostate, in the experiment on MDA-MB-435, in the experiment with SK-OV-3 ovarian, in the experiment on NCI-H522 lung and with K-562 leukemia was more than 100 µM each time. In addition, the TGI in the experiment with OVCAR-3 ovarian, with HT29 colon and in the experiment on T-47D breast was more than 100 µM in each case.
`CC(C)(C)OC(=O)N1CCCC1C(=O)NCCNc1ccc(NCCNC(=O)C2CCCN2C(=O)OC(C)(C)C)c2c1C(=O)c1ccccc1C2=O` (centres undefined): the TGI in the experiment on MCF7 breast was 34.2 µM; in the experiment with MDA-MB-435 it was 39.8 µM; with SK-OV-3 ovarian, 39.6 µM; in the experiment with NCI-H522 lung, 29.7 µM; in the experiment with K-562 leukemia, more than 100 µM; in the experiment with OVCAR-3 ovarian, 27.1 µM. Moreover, the TGI in the experiment with HT29 colon turned out to be 38.2 µM; in the experiment with HCT-15 colon, 26.8 µM.
Regarding `CN(CCNC(=O)c1cn(C)c2c1ccc1cc(Cl)ccc12)CCNC(=O)c1cn(C)c2c1ccc1cc(Cl)ccc12`, the TGI in the experiment on DU-145 prostate was found to be 3.25 µM; in the experiment with MDA-MB-435, 3.47 µM; in the experiment on NCI-H522 lung it was 3.68 µM; with K-562 leukemia, 13.6 µM; in the experiment with OVCAR-3 ovarian, 6.43 µM; in the experiment with HT29 colon, 3.62 µM. This molecule also had a TGI with HCT-15 colon of 3.3 µM.
With `CCCCCCCCCCCCCCC(=O)NC(CCCCNC(=O)C1CCCN1C(=O)C(CCCCN)NC(=O)C(CCCCN)NC(=O)C(CCCCN)NC(=O)C(CCCNC(=N)N)NC(=O)C(CCCCN)NC(=O)C(N)C(C)C)C(=O)CN1CCCC1C(=O)NCC(=O)NC(Cc1ccccc1)C(=O)N1CCCC1C(=O)NC(CO)C(=O)NC(Cc1ccc(O)cc1)C(=O)NC(CCCCN)C(=O)NC(CC(C)C)C(=O)NC(CCCNC(=N)N)C(=O)N1CCCC1C(=O)NCC(N)=O` (centres undefined) (I: GFPSYKLRPG-NH2 / II: H-VKRKKKP; linker I:N-II:C via X23; configuration not given here), the GI50 is 15.4 µM in the experiment with MCF7 breast; 24.6 µM in the experiment on DU-145 prostate; 3.15 µM in the experiment with MDA-MB-435; 15.9 µM in the experiment on SK-OV-3 ovarian; 21.8 µM in the experiment with NCI-H522 lung; 9.27 µM in the experiment on K-562 leukemia. In addition, the GI50 was 18.7 µM in the experiment on OVCAR-3 ovarian, 24.7 µM with HT29 colon and 3.17 µM in the experiment with T-47D breast. Also, the TGI amounted to 45.7 µM in the experiment on MCF7 breast; 64.2 µM in the experiment on DU-145 prostate; 41.6 µM in the experiment on MDA-MB-435; 44.3 µM in the experiment on SK-OV-3 ovarian; 66.3 µM with NCI-H522 lung; 44.4 µM with K-562 leukemia. In addition, the TGI with OVCAR-3 ovarian was 94.6 µM; in the experiment on HT29 colon it was 77.8 µM; with T-47D breast, 13.9 µM.
Take `O=[P+](O)c1cccs1`: the TGI in the experiment with SK-OV-3 ovarian, in the experiment with NCI-H522 lung, in the experiment on K-562 leukemia, with HT29 colon and in the experiment with HCT-15 colon was more than 100 µM each time.
Take `CC(=O)C1=C(C)N(c2ccc(C)cc2)C2(O)C=CC(=O)C3=C(O)c4ccccc4C(=O)C312` (centres undefined): the TGI in the experiment on MCF7 breast was more than 100 µM; with DU-145 prostate, more than 100 µM; in the experiment on SK-OV-3 ovarian, more than 100 µM; with NCI-H522 lung, 32.5 µM; in the experiment with K-562 leukemia, more than 100 µM; in the experiment with OVCAR-3 ovarian, 16.1 µM. The TGI is 15.7 µM with HT29 colon, more than 100 µM in the experiment on T-47D breast and more than 100 µM with HCT-15 colon.
With `CCOC(=O)c1c(SC)nc(-c2ccc(Cl)cc2)sc1=N`, the TGI in the experiment on MCF7 breast is 83.4 µM; with DU-145 prostate it was more than 100 µM; in the experiment with MDA-MB-435 it was more than 100 µM; with SK-OV-3 ovarian it was more than 100 µM; with K-562 leukemia it was more than 100 µM; in the experiment with OVCAR-3 ovarian, more than 100 µM. Also, the TGI in the experiment with HT29 colon is more than 100 µM; with T-47D breast, more than 100 µM; with HCT-15 colon, 73.9 µM.
For the molecule `O=[N+]([O-])c1ccc(/C=N/n2c(CCc3n[nH]c(=S)n3/N=C/c3ccc([N+](=O)[O-])o3)n[nH]c2=S)o1`, the TGI with MCF7 breast is 39.7 µM; with DU-145 prostate, 29.7 µM; in the experiment with MDA-MB-435, 35.3 µM; in the experiment on SK-OV-3 ovarian it was more than 100 µM; with NCI-H522 lung it was 47.3 µM; in the experiment on K-562 leukemia it was more than 100 µM. Moreover, the TGI in the experiment on OVCAR-3 ovarian turned out to be 54.2 µM; in the experiment with HT29 colon, 86.4 µM; in the experiment with T-47D breast, 62.8 µM; with HCT-15 colon, 32.7 µM.
With `CC1C(O)[C@@]2(OC[C@@]34C(=O)CC5(O)[C@H](CCC6Cc7nc8c(nc7C[C@]65C)CC5CC[C@@H]6C7=C[C@H]9O[C@@]%10(O[C@@](C)(CO)C[C@@H]%10O)C(C)[C@@]9(O)[C@]7(C)[C@@H](O)CC6[C@]5(C)C8)C3=CC[C@H]4C2C)OC1(C)C` (some centres undefined), the TGI in the experiment with MCF7 breast is 0.625 µM; in the experiment on SK-OV-3 ovarian it was 0.274 µM; in the experiment with NCI-H522 lung, 0.083 µM; with K-562 leukemia, 0.0798 µM; in the experiment on OVCAR-3 ovarian, more than 3.55 µM; in the experiment on HT29 colon, 0.061 µM. This molecule yielded a TGI with HCT-15 colon of 0.379 µM.
Regarding `O=C1/C(=C/c2ccc3c(c2)OCO3)Sc2scc(-c3ccc(O)c(O)c3)[n+]21`, the TGI in the experiment with MCF7 breast was more than 35.2 µM; in the experiment on DU-145 prostate, 13.1 µM; with MDA-MB-435 it was 13.5 µM; in the experiment with SK-OV-3 ovarian, 17.5 µM; in the experiment with K-562 leukemia it was 2.93 µM; with OVCAR-3 ovarian, 15.3 µM. The TGI with HT29 colon is 18.6 µM; in the experiment with T-47D breast it was more than 100 µM; with HCT-15 colon, 3.61 µM.

Source of the values: PubChem BioAssay (NCI).
